# From a compilation of properties of binary mixtures (doi:10.1021/je700428f)
# Test: xn = mol fraction of the nth substance listed
# Details: 100 kPa
smiles,measurement,setting,value
CCCO + C=CC[n+]1ccn(C)c1.O=S(=O)([N-]S(=O)(=O)C(F)(F)F)C(F)(F)F,speed of sound,"298.15 K, x2 = 0",1206.5 m/s
same,speed of sound,"338.15 K, x2 = 0",1071.5 m/s
same,speed of sound,"343.15 K, x2 = 0",1054.5 m/s
C=CC[n+]1ccn(C)c1.O=S(=O)([N-]S(=O)(=O)C(F)(F)F)C(F)(F)F + CCCO,speed of sound,"298.15 K, x1 = 0.2987",1189.5 m/s
same,speed of sound,"308.15 K, x1 = 0.8024",1207.5 m/s
same,speed of sound,"313.15 K, x1 = 0.5004",1173.5 m/s
same,speed of sound,"323.15 K, x1 = 0.2987",1127.5 m/s
CC[S+](CC)CC.O=S(=O)([N-]S(=O)(=O)C(F)(F)F)C(F)(F)F + CCCO,speed of sound,"293.15 K, x1 = 0.0493",1205.5 m/s
same,speed of sound,"308.15 K, x1 = 0.0493",1159.5 m/s
same,speed of sound,"323.15 K, x1 = 0.903",1181.5 m/s
CCCO + CC[S+](CC)CC.O=S(=O)([N-]S(=O)(=O)C(F)(F)F)C(F)(F)F,speed of sound,"338.15 K, x2 = 0",1071.5 m/s
same,speed of sound,"343.15 K, x2 = 0",1054.5 m/s
